Laboratory results as given in patent publication US5075289A, “9-R-azacyclic erythromycin antibiotics” (priority 1988, dated 1991).
Converted amounts (≈) assume the structure as drawn. Like-named read-outs stand apart in the source and are kept apart here.

Legend:
[1] = system: Enterococcus faecium ATCC 8043; test: In vitro antibacterial activity, agar dilution MIC; format: cell-based
Procedure: (§1) The antimicrobial spectra of a number of compounds of the invention were tested by the following method:
(§2) Twelve petri dishes containing successive aqueous dilutions of the test compound mixed with 10 ml of sterilized Brain Heart Infusion agar (Difco 0418-01-5) are prepared. Each plate is inoculated with 1:100 (or 1:10 for slow growing strains, primarily Micrococcus and Streptococcus) dilutions of up to 32 different microorganisms, using a Steers replicator block The inoculated plates are incubated at 35°-37° C. for 20-24 hours. In addition, a control plate, using BHI agar containing no test compound, is prepared and incubated at the beginning and end of each test.
(§3) An additional plate containing a compound having known susceptibility patterns for the organisms being tested and belonging to the same antibiotic class as the test compound is also prepared and incubated as a further control, as well as to provide test-to-test comparability. Erythromycin A was used for this purpose.
(§4) After incubation, each disk is read. The MIC is defined as the lowest concentration of drug yielding no growth, a slight haze, or sparsely isolated colonies on the inoculum spot as compared to the growth control.

Escherichia coli DC-2 = test: In vitro antibacterial activity, agar dilution MIC; format: cell-based
Procedure: as §1, §2, §3, §4

Escherichia coli H560 = test: In vitro antibacterial activity, agar dilution MIC; format: cell-based
Procedure: as §1, §2, §3, §4

Escherichia coli Juhl = test: In vitro antibacterial activity, agar dilution MIC; format: cell-based
Procedure: as §1, §2, §3, §4

Escherichia coli SS = test: In vitro antibacterial activity, agar dilution MIC; format: cell-based; details: read-out: MIC
Procedure: as §1, §2, §3, §4

[2] = system: Micrococcus luteus ATCC 4698; test: In vitro antibacterial activity, agar dilution MIC; format: cell-based; details: ATCC4698, M. luteus ATCC 4698, Brain Heart Infusion agar, 20-24 hours, read-out: MIC
Procedure: as §1, §2, §3, §4

[3] = system: Micrococcus luteus ATCC 9341; test: In vitro antibacterial activity, agar dilution MIC; format: cell-based
Procedure: as §1, §2, §3, §4

Staphylococcus aureus 45 = test: In vitro antibacterial activity, agar dilution MIC; format: cell-based; details: S. aureus 45, Brain Heart Infusion agar, 20-24 hours, read-out: MIC
Procedure: as §1, §2, §3, §4

[4] = system: Staphylococcus aureus A5177; test: In vitro antibacterial activity, agar dilution MIC; format: cell-based; details: S. aureus A5177, Brain Heart Infusion agar, 20-24 hours, read-out: MIC
Procedure: as §1, §2, §3, §4

[5] = system: Staphylococcus aureus ATCC 6538P; test: In vitro antibacterial activity, agar dilution MIC; format: cell-based; details: ATCC6538P, S. aureus ATCC 6538P, Brain Heart Infusion agar, 35-37° C., 20-24 hours, read-out: MIC
Procedure: as §1, §2, §3, §4

[6] = system: Staphylococcus aureus CMX 503A; test: In vitro antibacterial activity, agar dilution MIC; format: cell-based; details: CMX503A, S. aureus CMX 503A, Brain Heart Infusion agar, 20-24 hours, read-out: MIC
Procedure: as §1, §2, §3, §4

[7] = system: Staphylococcus aureus CMX 553; test: In vitro antibacterial activity, agar dilution MIC; format: cell-based; details: CMX553, S. aureus CMX 553, Brain Heart Infusion agar, 20-24 hours, read-out: MIC
Procedure: as §1, §2, §3, §4

[8] = system: Staphylococcus aureus CMX 686B; test: In vitro antibacterial activity, agar dilution MIC; format: cell-based; details: CMX686B, S. aureus CMX 686B, Brain Heart Infusion agar, 20-24 hours, read-out: MIC
Procedure: as §1, §2, §3, §4

[9] = system: Staphylococcus epidermidis 3519; test: In vitro antibacterial activity, agar dilution MIC; format: cell-based; details: S. epidermidis 3519, Brain Heart Infusion agar, 20-24 hours, read-out: MIC
Procedure: as §1, §2, §3, §4

[10] = system: Streptococcus agalactiae CMX 508; test: In vitro antibacterial activity, agar dilution MIC; format: cell-based
Procedure: as §1, §2, §3, §4

[11] = system: Streptococcus bovis A5169; test: In vitro antibacterial activity, agar dilution MIC; format: cell-based
Procedure: as §1, §2, §3, §4

[12] = system: Streptococcus pyogenes 2548 INDUC; test: In vitro antibacterial activity, agar dilution MIC; format: cell-based; details: S. pyogenes 2548 INDUC, Brain Heart Infusion agar, 20-24 hours, read-out: MIC
Procedure: as §1, §2, §3, §4

[13] = system: Streptococcus pyogenes 930 CONST; test: In vitro antibacterial activity, agar dilution MIC; format: cell-based
Procedure: as §1, §2, §3, §4

[14] = system: Streptococcus pyogenes EES61; test: In vitro antibacterial activity, agar dilution MIC; format: cell-based; details: S. pyogenes EES61, Brain Heart Infusion agar, 20-24 hours, read-out: MIC
Procedure: as §1, §2, §3, §4

[15] = system: Staphylococcus aureus 45 RAR 2; test: microbe, parasite or virus in culture; format: cell-based; details: 45RAR2
Procedure: as §1, §2, §3, §4

[16] = system: Staphylococcus aureus 642A; test: In vitro antibacterial activity, agar dilution MIC; format: cell-based; details: S. aureus 642A, Brain Heart Infusion agar, 20-24 hours, read-out: MIC
Procedure: as §1, §2, §3, §4

[17] = system: Staphylococcus aureus NCTC 10649; test: In vitro antibacterial activity, agar dilution MIC; format: cell-based; details: NCTC10649, S. aureus NCTC 10649, Brain Heart Infusion agar, 20-24 hours, read-out: MIC
Procedure: as §1, §2, §3, §4

[18] = system: Staphylococcus aureus (NCTC 10649); test: In-vivo mouse protection assay (acute mouse protection test); parameters: species or system Swiss albino mice; details: 168 h
Procedure: (§5) The acute mouse protection test is conducted on ten mice with each of three levels of drug. Mouse mortality is used to calculate an ED50 value, i.e., the dose of drug required to protect 50% of the test animals against death due to the inoculum challenge.
(§6) The acute mouse protection test is conducted on female, Swiss albino mice, 18-20 grams in weight. […] To check the potency of the inoculum, a titration of the indicated test organism is carried out in control animals. The treatment group of animals is dosed with the test compound at 1 and 5 hours post infection and observed for 7 days. The ED50 values are calculated using the mortality data collected.

[19] = system: Streptococcus pneumoniae (6303); test: as above; parameters: species or system Swiss albino mice; details: 168 h
Procedure: as §5, §6

[20] = system: Streptococcus pyogenes C-203; test: as above; parameters: species or system Swiss albino mice; details: 168 h
Procedure: as §5, §6

[21] = ATCC8043, E. faecium ATCC 8043, Brain Heart Infusion agar, 20-24 hours, read-out: MIC
[22] = DC2, E. coli DC-2, Brain Heart Infusion agar, 20-24 hours, read-out: MIC
[23] = E. coli Juhl, Brain Heart Infusion agar, 20-24 hours, read-out: MIC
[24] = E. coli SS, Brain Heart Infusion agar, 20-24 hours
[25] = CMX508, S. agalactiae CMX 508, Brain Heart Infusion agar, 20-24 hours, read-out: MIC

Row | Structure (SMILES) | MIC [1, 21] [µg/mL] | MIC (Escherichia coli DC-2; [22]) [µg/mL] | MIC (Escherichia coli H560; H560) [µg/mL] | MIC (Escherichia coli Juhl; [23]) [µg/mL] | MIC (Escherichia coli SS; [24]) [µg/mL] | MIC [2] [µg/mL] | MIC (Staphylococcus aureus 45) [µg/mL] | MIC [4] [µg/mL] | MIC [5] [µg/mL] | MIC [6] [µg/mL] | MIC [7] [µg/mL] | MIC [8] [µg/mL] | MIC [9] [µg/mL] | MIC [10, 25] [µg/mL] | MIC [12] [µg/mL] | MIC ([13]; 930CONST) [µg/mL] | MIC [14] [µg/mL] | MIC [15] [µg/mL] | further results
1 | CC[C@H]1OC(=O)[C@H](C)[C@@H](O[C@H]2C[C@@](C)(OC)[C@@H](O)[C@H](C)O2)[C@H](C)[C@@H](O[C@@H]2O[C@H](C)C[C@H](N(C)C)[C@H]2O)[C@](C)(O)C[C@@H](C)[C@@H](N2CCN(C(C)=O)CC2)[C@H](C)[C@@H](O)[C@]1(C)O [Example 16] | 0.78 (≈ 0.922 µM) | > 100 | 50 (≈ 59.1 µM) | > 100 | 1.56 (≈ 1.84 µM) | 1.56 (≈ 1.84 µM) | 1.56 (≈ 1.84 µM) | 50 (≈ 59.1 µM) | 1.56 (≈ 1.84 µM) | 1.56 (≈ 1.84 µM) | 1.56 (≈ 1.84 µM) | 1.56 (≈ 1.84 µM) | 1.56 (≈ 1.84 µM) | 0.39 (≈ 0.461 µM) | 50 (≈ 59.1 µM) | > 100 | 0.1 (≈ 0.118 µM) | 3.1 (≈ 3.66 µM) | MIC ([3]; ATCC9341, read-out: MIC): 0.2 µg/mL (≈ 0.236 µM); MIC [11]: 0.1 µg/mL (≈ 0.118 µM)
2 | CC[C@H]1OC(=O)[C@H](C)[C@@H](O[C@H]2C[C@@](C)(OC)[C@@H](O)[C@H](C)O2)[C@H](C)[C@@H](O[C@@H]2O[C@H](C)C[C@H](N(C)C)[C@H]2O)[C@](C)(O)C[C@@H](C)[C@@H](N2CCN(C(=O)OCc3ccccc3)CC2)[C@H](C)[C@@H](O)[C@]1(C)O [Example 18] | 0.39 (≈ 0.416 µM) | > 100 | 50 (≈ 53.3 µM) | > 100 | 3.1 (≈ 3.3 µM) | 0.78 (≈ 0.831 µM) | 0.78 (≈ 0.831 µM) | 12.5 (≈ 13.3 µM) | 0.78 (≈ 0.831 µM) | 0.78 (≈ 0.831 µM) | 0.78 (≈ 0.831 µM) | 0.78 (≈ 0.831 µM) | 0.78 (≈ 0.831 µM) |  | 12.5 (≈ 13.3 µM) |  | 0.1 (≈ 0.107 µM) | 1.56 (≈ 1.66 µM) | MIC ([3]; ATCC9341): 0.1 µg/mL (≈ 0.107 µM); MIC ([10]; CMX508, read-out: MIC): 0.2 µg/mL (≈ 0.213 µM); MIC ([11]; S. bovis A5169, Brain Heart Infusion agar, 20-24 hours, read-out: MIC): 0.05 µg/mL (≈ 0.0533 µM); MIC ([13]; S. pyogenes 930 CONST, Brain Heart Infusion agar, 20-24 hours, read-out: MIC): 50 µg/mL (≈ 53.3 µM)
3 | CC[C@H]1OC(=O)[C@H](C)[C@@H](O[C@H]2C[C@@](C)(OC)[C@H](N)[C@H](C)O2)[C@H](C)[C@@H](O[C@@H]2O[C@H](C)C[C@H](N(C)C)[C@H]2O)[C@](C)(O)C[C@@H](C)[C@@H](N2CCCCC2)[C@H](C)[C@@H](O)[C@]1(C)O [Example 32] |  |  |  |  |  | 0.78 (≈ 0.972 µM) | 0.78 (≈ 0.972 µM) | 6.2 (≈ 7.73 µM) | 0.78 (≈ 0.972 µM) | 0.39 (≈ 0.486 µM) | 0.78 (≈ 0.972 µM) | 0.78 (≈ 0.972 µM) | 0.78 (≈ 0.972 µM) | 0.1 (≈ 0.125 µM) | 6.2 (≈ 7.73 µM) | > 100 | 0.1 (≈ 0.125 µM) | 1.56 (≈ 1.94 µM) | MIC ([1]; ATCC8043, read-out: MIC): 0.2 µg/mL (≈ 0.249 µM); MIC (Escherichia coli DC-2; DC2): 12.5 µg/mL (≈ 15.6 µM); MIC (Escherichia coli H560; E. coli H560, Brain Heart Infusion agar, 20-24 hours, read-out: MIC): 3.1 µg/mL (≈ 3.86 µM); MIC (Escherichia coli Juhl): 25 µg/mL (≈ 31.2 µM); MIC (Escherichia coli SS): 0.2 µg/mL (≈ 0.249 µM); MIC ([3]; ATCC9341, M. luteus ATCC 9341, Brain Heart Infusion agar, 20-24 hours, read-out: MIC): 0.05 µg/mL (≈ 0.0623 µM); MIC [16]: 1.56 µg/mL (≈ 1.94 µM); MIC [17]: 1.56 µg/mL (≈ 1.94 µM); MIC ([11]; read-out: MIC): 0.02 µg/mL (≈ 0.0249 µM)
4 | CC[C@H]1OC(=O)[C@H](C)[C@@H](O[C@H]2C[C@@](C)(OC)[C@@H](O)[C@H](C)O2)[C@H](C)[C@@H](O[C@@H]2O[C@H](C)C[C@H](N(C)C)[C@H]2O)[C@](C)(O)C[C@@H](C)C(=O)[C@H](C)[C@@H](O)[C@]1(C)O [erythromycin] |  |  |  |  |  |  |  |  |  |  |  |  |  |  |  |  |  |  | ED50 ([18]; NCTC10649, po): 98 mg/kg; ED50 ([18]; NCTC10649, sc): 20 mg/kg; ED50 ([19]; po): 21.5 mg/kg; ED50 ([19]; sc): 0.9 mg/kg; ED50 ([20]; C203, po): 12 mg/kg; ED50 ([20]; C203, sc): 1.8 mg/kg
